Data: patent US20240067693A1, “POLYPEPTIDES AND USES THEREOF” (MEDIMMUNE LIMITED, priority 2020, published 2024)
Numbered stars: 1 amine (or outer) side, 2 acyl side, 3 side chain; on linkers, the order of the positions; unused ones are H or OH. Bridge positions count the residues as written; N and C are the ends. Square brackets hold non-standard residues; d marks the D form. Side chains are listed from the residue outwards. Peptide text beside a SMILES is read from it. * marks the point of attachment. C18 diacid = O=C(O)CCCCCCCCCCCCCCCCC(=O)*; γGlu = O=C(O)[C@H](CCC(=O)[*:2])N[*:1]; Aib = CC(C)(N)C(=O)O

Key:
[1] = target: T1, human amylin receptor (calcitonin receptor co-expressed with receptor activity modifying protein, RAMP3) (hAMYR3) (Homo sapiens, UniProt O60896+P30988); assay: cAMP production in 1321N1 cells with stable recombinant expression of human amylin receptor (hAMYR3); type: cell-based; conditions: for Ratio (selectivity hAMYR vs hCTR, ratio of EC50 values at the two receptors): EC50 hCTR / EC50 hAMYR3; for EC50: cAMP, 1321N1 cells, assay buffer with 0.1% BSA, read-out: EC50 (pM) hAMYR3
T1 construct: expressed in transfected cells
T1 sequence (P30988 25-474): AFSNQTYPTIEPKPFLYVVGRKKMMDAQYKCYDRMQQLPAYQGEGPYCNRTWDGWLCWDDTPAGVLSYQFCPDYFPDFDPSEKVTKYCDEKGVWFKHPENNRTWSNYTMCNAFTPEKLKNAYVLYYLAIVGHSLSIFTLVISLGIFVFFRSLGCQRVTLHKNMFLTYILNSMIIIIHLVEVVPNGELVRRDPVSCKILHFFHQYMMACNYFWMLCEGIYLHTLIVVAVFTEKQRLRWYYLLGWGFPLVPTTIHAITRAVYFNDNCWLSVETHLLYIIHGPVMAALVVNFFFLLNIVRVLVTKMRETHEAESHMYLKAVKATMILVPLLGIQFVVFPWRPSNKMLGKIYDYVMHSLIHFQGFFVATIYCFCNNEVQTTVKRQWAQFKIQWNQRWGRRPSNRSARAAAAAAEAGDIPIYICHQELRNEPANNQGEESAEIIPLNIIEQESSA
T1 sequence (O60896 24-148 partner): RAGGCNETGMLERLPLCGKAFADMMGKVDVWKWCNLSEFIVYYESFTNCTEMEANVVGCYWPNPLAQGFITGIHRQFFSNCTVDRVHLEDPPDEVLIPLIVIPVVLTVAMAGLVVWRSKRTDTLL
How it was run: (§1)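 Thawed cells in HBSS/0.1% BSA/25 mM HEPES pH 7.4 with 0.5 mM IBMX were incubated with peptides 30 min at room temperature; cAMP read by HTRF. EC50 from 4-parameter fit of % activation relative to maximal amylin or calcitonin effect.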

[2] = target: T2, human calcitonin receptor (hCTR) (Homo sapiens, UniProt P30988); assay: cAMP production in 1321N1 cells with stable recombinant expression of human calcitonin receptor (hCTR); type: cell-based; conditions: cAMP, 1321N1 cells, assay buffer with 0.1% BSA; read-out: EC50 (pM) hCTR
T2 construct: expressed in transfected cells
T2 sequence (P30988 25-474): T1 sequence (P30988 25-474)
How it was run: as §1

Ratio (selectivity hAMYR vs hCTR, ratio of EC50 values at the two receptors) [1]	EC50 [1]	EC50 [2]	Compound
12	334 pM	4140 pM	CC[C@H](C)[C@H](NC(=O)[C@@H]1CCCN1C(=O)CNC(=O)[C@H](Cc1ccccc1)NC(=O)[C@H](CC(N)=O)NC(=O)C(C)(C)NC(=O)[C@H](CO)NC(=O)[C@H](CO)NC(=O)[C@H](Cc1c[nH]cn1)NC(=O)[C@@H](NC(=O)[C@H](CC(C)C)NC(=O)[C@H](Cc1ccccc1)NC(=O)[C@H](CC(N)=O)NC(=O)[C@H](C)NC(=O)[C@H](CC(C)C)NC(=O)[C@H](CCCNC(=N)N)NC(=O)[C@H](CCC(N)=O)NC(=O)[C@@H](NC(=O)[C@H](C)NC(=O)[C@@H]1CSSC[C@H](NC(=O)[C@@H](N)CCCCNC(=O)CC[C@H](NC(=O)CC[C@H](NC(=O)CCCCCCCCCCCCCCCCC(=O)O)C(=O)O)C(=O)O)C(=O)N[C@@H](CC(N)=O)C(=O)N[C@@H]([C@@H](C)O)C(=O)N[C@@H](C)C(=O)N[C@@H]([C@@H](C)O)C(=O)N1)[C@@H](C)O)C(C)C)C(=O)N[C@@H](CC(C)C)C(=O)N1CCC[C@H]1C(=O)N1CCC[C@H]1C(=O)N[C@H](C(=O)N[C@@H](CCC(=O)O)C(=O)N[C@H](C(=O)NCC(=O)N[C@@H](CO)C(=O)N[C@@H](CC(N)=O)C(=O)N[C@H](C(=O)N[C@@H](Cc1ccc(O)cc1)C(N)=O)[C@@H](C)O)C(C)C)[C@@H](C)O [Peptide 49, K(γE-γE-C18diacid)[CNTATC]ATQRLANFLVHSS(Aib)NFGPILPPTEVGSNTY-amide] (H-K([γGlu-γGlu-C18 diacid])CNTATCATQRLANFLVHSS[Aib]NFGPILPPTEVGSNTY-NH2; disulfide 2-7)
54	349 pM	18900 pM	CC[C@H](C)[C@H](NC(=O)[C@@H]1CCCN1C(=O)CNC(=O)[C@H](Cc1ccccc1)NC(=O)[C@H](CC(N)=O)NC(=O)C(C)(C)NC(=O)[C@H](CO)NC(=O)[C@H](CO)NC(=O)[C@H](Cc1c[nH]cn1)NC(=O)[C@H](CCCNC(=N)N)NC(=O)[C@H](CC(C)C)NC(=O)[C@H](Cc1ccccc1)NC(=O)[C@H](CC(N)=O)NC(=O)[C@H](C)NC(=O)[C@H](CC(C)C)NC(=O)[C@H](CCCNC(=N)N)NC(=O)[C@H](CCC(N)=O)NC(=O)[C@@H](NC(=O)[C@H](C)NC(=O)[C@@H]1CSSC[C@H](NC(=O)[C@@H](N)CCCCNC(=O)CC[C@H](NC(=O)CC[C@H](NC(=O)CCCCCCCCCCCCCCCCC(=O)O)C(=O)O)C(=O)O)C(=O)N[C@@H](CC(N)=O)C(=O)N[C@@H]([C@@H](C)O)C(=O)N[C@@H](C)C(=O)N[C@@H]([C@@H](C)O)C(=O)N1)[C@@H](C)O)C(=O)N[C@@H](CC(C)C)C(=O)N1CCC[C@H]1C(=O)N1CCC[C@H]1C(=O)N[C@H](C(=O)N[C@@H](CCC(=O)O)C(=O)N[C@H](C(=O)NCC(=O)N[C@@H](CO)C(=O)N[C@@H](CC(N)=O)C(=O)N[C@H](C(=O)N[C@@H](Cc1ccc(O)cc1)C(N)=O)[C@@H](C)O)C(C)C)[C@@H](C)O [Peptide 50, K(γE-γE-C18diacid)[CNTATC]ATQRLANFLRHSS(Aib)NFGPILPPTEVGSNTY-amide] (H-K([γGlu-γGlu-C18 diacid])CNTATCATQRLANFLRHSS[Aib]NFGPILPPTEVGSNTY-NH2; disulfide 2-7; N-terminus assumed)
13	126 pM	1640 pM	CC[C@H](C)[C@H](NC(=O)[C@@H]1CCCN1C(=O)CNC(=O)[C@H](Cc1ccccc1)NC(=O)[C@H](CC(N)=O)NC(=O)C(C)(C)NC(=O)[C@H](CO)NC(=O)[C@H](CO)NC(=O)[C@H](Cc1c[nH]cn1)NC(=O)[C@H](CO)NC(=O)[C@H](CC(C)C)NC(=O)[C@H](Cc1ccccc1)NC(=O)[C@H](CC(N)=O)NC(=O)[C@H](C)NC(=O)[C@H](CC(C)C)NC(=O)[C@H](CCCNC(=N)N)NC(=O)[C@H](CCC(N)=O)NC(=O)[C@@H](NC(=O)[C@H](C)NC(=O)[C@@H]1CSSC[C@H](NC(=O)[C@H](CCCCN)NC(=O)[C@@H](N)CCCCNC(=O)CC[C@H](NC(=O)CCCCCCCCCCCCCCCCC(=O)O)C(=O)O)C(=O)N[C@@H](CC(N)=O)C(=O)N[C@@H]([C@@H](C)O)C(=O)N[C@@H](C)C(=O)N[C@@H]([C@@H](C)O)C(=O)N1)[C@@H](C)O)C(=O)N[C@@H](CC(C)C)C(=O)N1CCC[C@H]1C(=O)N1CCC[C@H]1C(=O)N[C@H](C(=O)N[C@@H](Cc1c[nH]cn1)C(=O)N[C@H](C(=O)NCC(=O)N[C@@H](CO)C(=O)N[C@@H](CC(N)=O)C(=O)N[C@H](C(=O)N[C@@H](Cc1ccc(O)cc1)C(N)=O)[C@@H](C)O)C(C)C)[C@@H](C)O [Peptide 51, K(γE-C18diacid)K[CNTATC]ATQRLANFLSHSS(Aib)NFGPILPPTHVGSNTY-amide] (H-K([γGlu-C18 diacid])KCNTATCATQRLANFLSHSS[Aib]NFGPILPPTHVGSNTY-NH2; disulfide 3-8; N-terminus assumed)
12	89 pM	1100 pM	CC[C@H](C)[C@H](NC(=O)[C@@H]1CCCN1C(=O)CNC(=O)[C@H](Cc1ccccc1)NC(=O)[C@H](CC(N)=O)NC(=O)C(C)(C)NC(=O)[C@H](CO)NC(=O)[C@H](CO)NC(=O)[C@H](Cc1c[nH]cn1)NC(=O)[C@H](CO)NC(=O)[C@H](CC(C)C)NC(=O)[C@H](Cc1ccccc1)NC(=O)[C@H](CC(N)=O)NC(=O)[C@H](C)NC(=O)[C@H](CC(C)C)NC(=O)[C@H](CCCNC(=N)N)NC(=O)[C@H](CCC(N)=O)NC(=O)[C@@H](NC(=O)[C@H](C)NC(=O)[C@@H]1CSSC[C@H](NC(=O)[C@H](CCCCN)NC(=O)[C@@H](N)CCCCNC(=O)CC[C@H](NC(=O)CCCCCCCCCCCCCCCCC(=O)O)C(=O)O)C(=O)N[C@@H](CC(N)=O)C(=O)N[C@@H]([C@@H](C)O)C(=O)N[C@@H](C)C(=O)N[C@@H]([C@@H](C)O)C(=O)N1)[C@@H](C)O)C(=O)N[C@@H](CC(C)C)C(=O)N1CCC[C@H]1C(=O)N1CCC[C@H]1C(=O)N[C@H](C(=O)N[C@@H](CCCNC(=N)N)C(=O)N[C@H](C(=O)NCC(=O)N[C@@H](CO)C(=O)N[C@@H](CC(N)=O)C(=O)N[C@H](C(=O)N[C@@H](Cc1ccc(O)cc1)C(N)=O)[C@@H](C)O)C(C)C)[C@@H](C)O [Peptide 52, K(γE-C18diacid)K[CNTATC]ATQRLANFLSHSS(Aib)NFGPILPPTRVGSNTY-amide] (H-K([γGlu-C18 diacid])KCNTATCATQRLANFLSHSS[Aib]NFGPILPPTRVGSNTY-NH2; disulfide 3-8; N-terminus assumed)
2	98 pM	235 pM	CC[C@H](C)[C@H](NC(=O)[C@@H]1CCCN1C(=O)CNC(=O)[C@H](Cc1ccccc1)NC(=O)[C@H](CC(N)=O)NC(=O)C(C)(C)NC(=O)[C@H](CO)NC(=O)[C@H](CO)NC(=O)[C@H](Cc1c[nH]cn1)NC(=O)[C@H](CO)NC(=O)[C@H](CC(C)C)NC(=O)[C@H](Cc1ccccc1)NC(=O)[C@H](CC(N)=O)NC(=O)[C@H](C)NC(=O)[C@H](CC(C)C)NC(=O)[C@H](CCCNC(=N)N)NC(=O)[C@H](CCC(N)=O)NC(=O)[C@@H](NC(=O)[C@H](C)NC(=O)[C@@H]1CSSC[C@H](NC(=O)[C@H](CCCCN)NC(=O)[C@@H](N)CCCCNC(=O)CC[C@H](NC(=O)CCCCCCCCCCCCCCCCC(=O)O)C(=O)O)C(=O)N[C@@H](CC(N)=O)C(=O)N[C@@H]([C@@H](C)O)C(=O)N[C@@H](C)C(=O)N[C@@H]([C@@H](C)O)C(=O)N1)[C@@H](C)O)C(=O)N[C@@H](CC(C)C)C(=O)N1CCC[C@H]1C(=O)N1CCC[C@H]1C(=O)N[C@H](C(=O)N1CCC[C@H]1C(=O)N[C@H](C(=O)NCC(=O)N[C@@H](CO)C(=O)N[C@@H](CC(N)=O)C(=O)N[C@H](C(=O)N[C@@H](Cc1ccc(O)cc1)C(N)=O)[C@@H](C)O)C(C)C)[C@@H](C)O [Peptide 53, K(γE-C18diacid)K[CNTATC]ATQRLANFLSHSS(Aib)NFGPILPPTPVGSNTY-amide] (H-K([γGlu-C18 diacid])KCNTATCATQRLANFLSHSS[Aib]NFGPILPPTPVGSNTY-NH2; disulfide 3-8; N-terminus assumed)
